Experimental data taken from patent publication US20210145768A1, “MODULATING IMMUNE RESPONSE VIA TARGETING OF OLFACTORY RECEPTOR ACTIVITY” (La Jolla Institute for Allergy and Immunology, priority 2018, published 2021).
Entries after “also recorded” stand apart in the source; their conditions may differ.

Legend:
Olfr2 [1] = target: T1, Olfr2 (Mus musculus, UniProt Q9QWU6); test: Calcium signalling (Fluo-4, flow cytometry) in vascular macrophages; assay type: cell-based; design: Olfr2 expression was confirmed at the protein level on F4/80^+ vascular macrophages; from tissue; host or cells: explanted whole aortas, digested aortic cell suspensions (F4/80+ vascular macrophages) and blood monocytes of Apoe-/- C57BL/6J mice; living Apoe-/- mice for the in vivo study
T1 sequence (Q9QWU6 1-327): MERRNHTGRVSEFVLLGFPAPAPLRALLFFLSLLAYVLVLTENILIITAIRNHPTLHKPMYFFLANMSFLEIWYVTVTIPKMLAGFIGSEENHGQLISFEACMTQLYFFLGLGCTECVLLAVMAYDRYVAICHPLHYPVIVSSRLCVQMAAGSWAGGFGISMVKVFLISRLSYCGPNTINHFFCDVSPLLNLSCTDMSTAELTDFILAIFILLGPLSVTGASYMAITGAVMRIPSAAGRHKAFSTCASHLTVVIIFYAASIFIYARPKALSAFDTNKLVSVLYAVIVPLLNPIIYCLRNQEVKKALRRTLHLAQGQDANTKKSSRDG
Protocol: The role of Olfr2 ligation on inflammatory responses was investigated by measuring intracellular free calcium (Can in vascular macrophages. Briefly, mouse aortic cell suspensions were loaded with 2 μM Fluo-4 at 37° C. for 30 min, then washed and incubated with cell surface markers at RT for 20 min CD45^+, live, dump channel^− (TCRb^−, CD19^−), F4/80^+ macrophages were analyzed by flow cytometry. Olfr2 agonist Oct (10 μM), and antagonist Cit (100 μM) alone or combined (Oct+Cit) were added 60 seconds (s) after the acquisition started. DMSO (0.1%) was injected as a control (Ctrl).
Aortic cell suspensions obtained as previously described^18 were pre-incubated with extracellular markers for vascular macrophages including CD45-PerCP, TCRβ/CD4-APCCy7 (Dump Channel), F4/80-BV421 and LD Yellow fixable dye (Invitrogen) for 20 min in Fc block solution at RT in the dark. Aortic cell suspensions were than washed twice and loaded with 2 μM of Fluo4 dye (Thermo Fischer Scientific) for 30 min at 37° C.
Subsequently, cells were washed and resuspended in 37° C. warm HBSS buffer containing Ca^2+ and Mg^2+ and acquired with the LSRII flow cytometer. After 60 seconds, Oct (10 μM), Cit (100 μM) or vehicle (DMSO 0.1%) was added and acquisition continued for additional 140 seconds. Data was acquired with FACSDiva software (BD Biosciences) and analyzed with FlowJo software (Treestar Inc). Mean fluorescence intensity of Fluo4 was integrated over 25 seconds form the start of the acquisition (tot. 8 intervals).

Olfr2 [2] = target: T1, Olfr2; test: Inflammatory gene expression (real time PCR) in explanted whole aortas treated with octanal, citral, LPS; assay type: cell-based; design: Olfr2 expression was confirmed at the protein level on F4/80^+ vascular macrophages; from tissue; host or cells: explanted whole aortas, digested aortic cell suspensions (F4/80+ vascular macrophages) and blood monocytes of Apoe-/- C57BL/6J mice; living Apoe-/- mice for the in vivo study; settings: for octanal-induced increase in CCL2, CCL4, TNF and iNOS (Nos2) expression: citral 100 μM with octanal 10 μM, in presence and absence of LPS; for mRNA expression of Ccl2, Ccl4, Tnf and Nos2 (iNOS): explanted whole aortas of Apoe−/− mice on WD 2 weeks, octanal 10 μM alone, normalized to Gapdh and untreated control
Protocol: Gene expression analysis was performed by harvesting whole aortas from apoE^−/− mice kept on western diet (WD) for 2 weeks and treating for 12h with DMSO (Ctrl), citral (Cit, 100 μM), octanal (Oct, 10 μM in DMSO) or lipopolysaccharide (lps, 0.5 μg/mL in DMSO) alone or in combination. After the incubation, aortas were transferred in Trizol reagent (1 ml) and digested with gentleMACS™ Dissociator (Millteny). Total RNA was then purified with RNAse Micro kit (Qiagen) and reverse transcribed using the Omniscript reverse transcriptase kit (Qiagen). Real-time PCR reaction was performed following the RT^2 Sybr green gene expression assay protocol (Qiagen). RT2 SYBR Green qPCR mastermix mix and premade RT^2 qPCR Primer Assay for mouse GAPDH, CCL2, CCL4, TNF, and iNOS were used. Data were normalized to the expression levels of the housekeeping gene GAPDH.
To test physiologic effects of Olfr2 activation in situ, explanted whole aortas of mice (n=5 per group) were treated with octanal with or without LPS. Briefly, whole aortas were left untreated or incubated with the Olfr2 agonist octanal (Oct, 10 μM), LPS, (500 ng/mL), or with both for 12 h. Quantitative Real time PCR reaction was performed to detect Ccl2, Ccl4, Tnf, and Nos2 gene expression. Relative expression was normalized to Gapdh expression and the untreated control. […] TNF secretion by vascular macrophages (F4/80+) was confirmed by intracellular staining using flow cytometry (FIG. 7F).
Apoe^−/− mice were fed WD for 2 weeks before sacrifice for aorta explant culture. Whole aortas were incubated in culture medium with DMSO (0.1% as a vehicle), octanal (Oct, 10 μM), LPS (500 ng/mL) alone or octanal and LPS combined (LPS+Oct) for 12 h at 37° C. and 5% CO2. Subsequently, aortas were collected and further processed as below discussed for RNA extraction, and flow cytometry analysis. Culture supernatants were collected, aliquoted, and frozen at −80° C. until further analysis.
BMDMs and hMDMs were incubated in culture media for 12 h at 37° C. and 5% CO2 with Oct, (10 μM), LPS (500 ng/mL) alone or combined with Oct (LPS+Oct) and DMSO (0.1%) as a control and lysed with Qiazol (500 μL; Qiagen) Similarly, whole aortas incubated as previously described were transferred into Qiazol (500 μl; Qiagen) and digested with gentleMACS™ Dissociator (Miltenyi).
RNA extraction was performed using a Qiazol/RNAeasy micro kit hybrid protocol (Qiagen).
Total RNA was quantified using a nanodrop spectrophotometer (Peqlab) and 500 ng were reverse transcribed into cDNA using Omniscript reverse transcriptase (Qiagen). Real time PCR reactions were performed according to the RT^2 SYBR green gene expression assay protocol (Qiagen). RT2 SYBR Green qPCR master mix and premade RT^2 qPCR Primer Assays for mouse Olfr2, Rtp1, Rtp2, Ccl2, Ccl4, Tnf, Nos2 and Gapdh were used. Similarly, real time PCR analysis of hMDMs samples was performed following the RT^2 SYBR green gene expression assay protocol (Qiagen), applying RT^2 SYBR Green qPCR master mix and premade RT^2 qPCR Primer Assays for human OR6A2, TNF, IL-6, NOS2 and GAPDH. The results were calculated applying the 2^−ΔΔCT method^32 using Gapdh/GAPDH as housekeeping gene.

Row | SMILES | octanal-induced calcium flux in vascular macrophages (Olfr2 [1]; citral 100 μM + octanal 10 μM) | octanal-induced increase in CCL2, CCL4, TNF and iNOS (Nos2) expression (Olfr2 [2]; explanted aortas, 12 h) | octanal-induced increase in CCL2, CCL4, TNF and iNOS (Nos2) expression (Olfr2 [2]; explanted aortas, 12 h, listed as Cit) | calcium signal in other immune cells (TCRb+, CD19+) (Olfr2 [1]; octanal 10 μM, citral 100 μM alone or combined) | intracellular free calcium (Fluo-4 MFI) in F4/80+ vascular macrophages (Olfr2 [1]; octanal 10 μM, at 100 and 125 s after injection) | LPS-induced expression of inflammatory molecules (Ccl2, Ccl4, Tnf, Nos2) (Olfr2 [2]; explanted aortas, octanal 10 μM + LPS 500 ng/mL, 12 h) | mRNA expression of Ccl2, Ccl4, Tnf and Nos2 (iNOS) (Olfr2 [2]; 12 h) | mRNA expression of Ccl2, Ccl4, Tnf and Nos2 (iNOS) (Olfr2 [2]; 12 h, listed as Oct) | LPS induction of CCL2 (MCP-1) and CCL4 (Olfr2 [2]; qRT-PCR, octanal + LPS) | iNOS expression induced by LPS (Olfr2 [2]; qRT-PCR, octanal + LPS) | TNF expression (Olfr2 [2]; qRT-PCR, octanal + LPS, Olfr2 ligation required to reveal LPS-induced increase) | CCL2 and CCL4 expression (Olfr2 [2]; qRT-PCR, octanal alone (without LPS))
1 | CC(C)=CCCC(C)=CC=O [citral] | completely blocked | completely blocked; also recorded: effective at curbing inflammatory mediator expression | reduced | – | – | – | – | – | – | – | – | –
2 | CCCCCCCC=O [octanal] | – | – | – | No calcium signal | highly significant increase | exacerbate the inflammatory response; also recorded: significantly enhances; also recorded: enhanced the LPS-induced expression | induces expression of inflammatory mediators; also recorded: induced mRNA expression | induces pro-inflammatory gene expression | significantly enhanced | greatly enhanced | greatest effect | measurable increase
